# Columns and labels:
# [1] = tested on: PD2 mouse ovaries (primordial follicles); experiment: In vitro culture of PD2 mouse ovaries, follicle counting; format: cell-based; details: VCD 1-1000 nM on first day of culture, then 3 days normal medium, compared with control group
# Description: (§1) Neonatal 2-day (PD2) or 12-day (PD12) C57bl/6 mice (provided by Shandong University Experimental Animal Center) were executed by decapitation and the ovaries and surrounding tissues were dissected and separated under a dissecting microscope, and the excised ovaries were placed in Leibovitz's L-15 medium (containing 10% fetal bovine serum+0.5% penicillin+0.5% streptomycin). The adipose tissue was dissected and separated. The separated ovaries were washed three times in PBS.
# (§2) Configure ovarian medium: 1 mg/ml bovine serum albumin (BSA, Cat #A4161-1G, Sigma), 1 mg/ml AbluMAX II Lipid-Rich BSA (Cat #11021029, Gibco), 5% Insulin-Transferrin-Selenium (ITS-G) (Cat #41400-045, Gibco), 0.5% Penicillin+0.5% Streptomycin and 100 nM VCD were added into DMEM/F12 (Cat #11039-021, Gibco) medium. The prepared medium was mixed and added to a six-well plate with 1.5 ml of medium per well. A sieve (Cat #PICMORG50, Millipore) was put on the medium and placed in the incubator to preheat.
# (§3) The separated ovaries were transferred to the ovarian medium with a pipette, washed three times and placed on the upper sieve of the pre-warmed medium. A drop of medium was added around the ovaries in the upper sieve to keep the area around the ovaries moist. The six-well plates were placed in a 37° C., 5% CO2 incubator for four consecutive days, and the lower layer of medium was changed daily. […]
# PI3K-Akt pathway = experiment: Western blot for phosphorylation of proteins associated with follicle activation in the ovary; format: cell-based; details: PD2 mouse ovaries; 10 nM VCD for 2-3 min in vitro
# Description: PD2 mice were dissected in autopsy solution (Leibovitz's L-15 medium, […], Gibco; +10% fetal bovine serum (FBS)) after execution, washed twice in ovarian medium and incubated in ovarian medium. After incubation in medium with or without VCD for 3 min. ovarian tissue was collected and lysed in RIPA lysis solution (Cat #89900, Thermo) for digestion. Proteins were denatured and separated by SDS PAGE and transferred to PVDF membranes (Millipore). The membranes were incubated with primary antibodies followed by incubation with HRP-conjugated secondary antibodies and the bands were examined using an enhanced chemiluminescence detection kit (Bio-Rad).
# (§4) anti-rabbit aromatase (Cat #NBP1-45360, Novus, 1:2000), anti-rabbit phosphor-AKT (Serine 473) (D9E) (Cat #4060, Cell Signaling, 1:500), anti-rabbit phosphor-FoxO1 (Threonine 24)/FoxO3a (Threonine 32) (Cat #9464, Cell Signaling, 1:500), anti-rabbit phosphor-P-S6 (Serine 235/236) (Cat #4858, Cell Signaling, 1:1000), anti-rabbit phosphor-P-S6 (Serine 240/244) (Cat #2215, Cell Signaling, 1:1000), anti-rabbit phosphor-P70S6k (Threonine 389) (Cat #9205, Cell Signaling, 1:1000), anti-rabbit (Cat #7074S, CST) or anti-mouse (Cat #7076S, CST).
# Two-day-old (PD2) mouse ovaries were isolated and cultured in vitro according to the method described in Example 1. […]
# [2] = tested on: PD12 mouse ovaries (secondary follicles); experiment: In vitro culture of PD12 mouse ovaries, secondary follicle counting; format: cell-based; details: 4 days with VCD 1-1000 nM, compared to control group
# Description: as §1, §2, §3
# [3] = tested on: PD12 C57bl/6 female mice ovaries; experiment: Follicle development in neonatal mice in vivo; parameters: species or system mouse; details: 20 or 160 mg/kg intraperitoneal, 5 consecutive days, compared to saline control
# Description: PD12 C57bl/6 mice in the same litter were divided into experimental and control groups according to body weight. The experimental mice were weighed and given either 20 mg/kg or 160 mg/kg of VCD by intraperitoneal injection, while the control mice were given the same volume of saline. After […] of continuous administration, the mice were executed and the ovaries were dissected to separate the adipose tissue under the microscope and fixed in 4% PFA. Dehydrated sections were used to observe and count the development of follicles in the ovaries at different times.
# According to the method described in Example 1, the same litter of PD12 C57bl/6 female mice was divided into experimental and control groups according to body weight and given 20 mg/kg or 160 mg/kg of VCD by intraperitoneal injection, while the control mice were given the same volume of saline. Each group (N=6) was administered for 5 consecutive days, and then the mice were executed and the collected ovaries were stained to observe the morphology as shown in FIG. 3A (yellow arrows indicate early sinus follicles and red arrows indicate sinus follicles).
# [4] = tested on: 10-12 month old C57bl/6 ovaries; experiment: Ovulation stimulation experiment in old mice; format: in vivo, mouse; details: 80 mg/kg intraperitoneal, 5 days, then PMSG/hCG
# Description: 10-12 month old C57bl/6 […] were divided into experimental and control groups according to body weight, and the experimental group was weighed and injected intraperitoneally with 80 mg/kg of VCD, while the control group was given the same volume of saline. After 5 days of continuous administration, 5 units of PMSG were injected to the experimental group and the control group, and 10 IU of hCG was injected 48 hours later to induce secondary ovulation. Mice were executed 16 hours after hCG injection, and both oviducts were collected and placed in M2 dissecting solution (Cat #M7167, Sigma), and the oocyte-granulosa cell complexes were seen when cutting the dilated oviducts under a dissecting microscope. The granulosa cell complexes from each mouse were transferred to a droplet of hyaluronidase (Cat #90101, Fujifilm Irvine Scientific) and the number of eggs per mouse was counted under a microscope after the granulosa cells around the oocytes had been digested.
# According to the method described in Example 1, 10-12 month old C57bl/6 […] were divided into experimental and control groups according to their body weight, and the experimental group was weighed and injected intraperitoneally with 80 mg/kg of VCD, while the control group was given the same volume of saline. […]
# aromatase [5] = experiment: Aromatase expression in primary mouse granulosa cells; format: cell-based; details: PD20 primary granulosa cells; VCD 1-1000 nM, 24 h
# Description: as §4
# Granulosa cells were isolated from the ovaries of PD20 mice according to the method described by Reddy P et al, Science 2008, 319(5863):611-613 and Liu Y X et al Biol Reprod 1986, 35(1):27-36, from which primary granulosa cell lines were obtained. They were treated with different concentrations of VCD (0, 1 nM, 10 nM, 100 nM, 1000 nM) for 24 h, using 50 ng/ml FSH as control.
# aromatase [6] = experiment: Aromatase expression in KGN cells; format: cell-based, human; details: VCD 1-1000 nM, 24 h
# Description: as §4
# (§5) Human-derived granulocyte-like cell line KGN (provided by Prof. Toshihiko Yanase, Fukuoka University, Japan) was cultured in DMEM/F12 medium. KGN were treated with different concentrations of VCD (0, 1 nM, 10 nM, 100 nM, 1000 nM) for 24 h, using 50 ng/ml FSH as control.
# KGN cells = experiment: Estradiol (E2) levels in KGN cell culture supernatants (ELISA); format: cell-based, human; details: 24 h, versus control group
# Description: KGN cell supernatants were collected after 24 hours of cell culture for the detection of E2 levels. The procedure of the assay followed the instructions of the E2 Assay Kit (Human Estradiol (E2) ELISA Kit, Cat #KAQ0621, Invitrogen).
# as §5
# [7] = tested on: primordial and primary follicles; details: rodents; prior studies; cited from earlier work
structure (smiles),measurement,setting,value
"C1CC2OC2CC1C1CO1 (stereo not shown) [VCD, 4-vinylcyclohexene diepoxide]",number of primordial follicles and early primary follicles,[1],significantly increased
same,"activation of PI3K-Akt pathway (phosphorylation of involved proteins, Western blot)",PI3K-Akt pathway,significantly activate
same,number of secondary follicles,[2],significantly increased
same,follicles close to the preovulatory stage in the ovaries,[3],more follicles close to the preovulatory stage
same,"follicle counts (sinus follicles, corpus luteum) in ovaries",[4],more sinus follicles as well as newly formed corpus luteum
same,MII oocytes ovulated,[4]; versus saline control,more oocytes
same,expression level of aromatase in mouse granulosa cells,aromatase [5],significantly increased
same,expression level of aromatase in KGN,aromatase [6],significantly increased
same,level of estrogen (E2) in cell supernatant,KGN cells,significantly higher
same,ovotoxicity to follicles,[7],induces atretic degeneration of primordial and primary follicles

# From patent publication US12569465B2, “Method for activating follicles by means of using small-molecule compound, and preparation thereof” (TSINGTAO A-SMART MEDICAL TECHNOLOGY CO., LTD., priority 2020, dated 2026)
